pIC50: −log10 of the molar value. Counter-ions that a name gives are not always drawn.
Molecular target: T1, human SSAO (Homo sapiens, UniProt Q16853)
T1 construct: made in house
T1 sequence (Q16853 29-763 limits assumed): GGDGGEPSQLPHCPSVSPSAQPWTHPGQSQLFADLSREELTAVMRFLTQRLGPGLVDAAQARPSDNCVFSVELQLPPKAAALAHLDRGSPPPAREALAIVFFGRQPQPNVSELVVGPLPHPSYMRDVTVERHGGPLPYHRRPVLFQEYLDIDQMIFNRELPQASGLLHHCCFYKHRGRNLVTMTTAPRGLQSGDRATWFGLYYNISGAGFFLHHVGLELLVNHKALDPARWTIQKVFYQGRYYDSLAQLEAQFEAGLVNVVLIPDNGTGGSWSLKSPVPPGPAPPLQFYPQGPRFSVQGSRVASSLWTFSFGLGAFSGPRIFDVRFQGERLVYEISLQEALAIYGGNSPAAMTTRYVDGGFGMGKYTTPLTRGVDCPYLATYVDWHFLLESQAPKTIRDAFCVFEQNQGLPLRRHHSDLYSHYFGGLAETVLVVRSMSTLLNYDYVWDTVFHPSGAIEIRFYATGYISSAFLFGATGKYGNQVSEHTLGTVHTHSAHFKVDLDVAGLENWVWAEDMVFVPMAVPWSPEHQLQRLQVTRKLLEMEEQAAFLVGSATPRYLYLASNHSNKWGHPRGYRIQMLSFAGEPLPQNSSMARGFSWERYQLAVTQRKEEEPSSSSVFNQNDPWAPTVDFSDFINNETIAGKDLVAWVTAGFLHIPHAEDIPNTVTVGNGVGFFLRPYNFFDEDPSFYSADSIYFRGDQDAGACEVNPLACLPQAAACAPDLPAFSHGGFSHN
Assay: SSAO enzyme inhibition assay (benzylamine substrate; HRP-coupled hydrogen peroxide detection or 14C-benzaldehyde detection)
Format: biochemical
Conditions: purified recombinantly expressed human SSAO, benzylamine as substrate, r.t.; read-out: SSAO inhibitory activity IC50
Experimental: All primary assays were performed at r.t. with purified recombinantly expressed human SSAO. Enzyme was prepared essentially as described in Öhman et al. (Protein Expression and Purification 46 (2006) 321-331). In addition, secondary- and selectivity assays were performed using SSAO prepared from various tissues or purified rat recombinant SSAO. The enzyme activity was assayed with benzylamine as substrate by measuring either benzaldehyde production, using ^14C-labeled substrate, or by utilizing the production of hydrogen peroxide in a horseradish peroxidise (HRP) coupled reaction. Briefly, test compounds were dissolved in dimethyl sulfoxide (DMSO) to a concentration of 10 mM. Dose-response measurements were assayed by either creating 1:10 serial dilutions in DMSO to produce a 7 point curve or by making 1:3 serial dilutions in DMSO to produce 11 point curves. The top concentrations were adjusted depending on the potency of the compounds and subsequent dilution in reaction buffer yielded a final DMSO concentration ≦2%.
In a horseradish peroxidise (HRP) coupled reaction, hydrogen peroxide oxidation of 10-acetyl-3,7-dihydroxyphenoxazine produced resorufin, which is a highly fluorescent compound (Zhout and Panchuk-Voloshina. Analytical Biochemistry 253 (1997) 169-174; Amplex® Red Hydrogen Peroxide/peroxidise Assay kit, Invitrogen A22188). Enzyme and compounds in 50 mM sodium phosphate, pH 7.4 were set to pre-incubate in flat-bottomed microtiter plates for approximately 15 minutes before initiating the reaction by addition of a mixture of HRP, benzylamine and Amplex reagent. Benzylamine concentration was fixed at a concentration corresponding to the Michaelis constant, determined using standard procedures. Fluorescence intensity was then measured at several time points during 1-2 hours, exciting at 544 nm n and reading the emission at 590 nm. For the human SSAO assay final concentrations of the reagents in the assay wells were: SSAO enzyme 1 μg/ml, benzylamine 100 μM, Amplex reagent 20 μM, HRP 0.1 U/mL and varying concentrations of test compound. The inhibition was measured as % decrease of the signal compared to a control without inhibitor (only diluted DMSO). The background signal from a sample containing no SSAO enzyme was subtracted from all data points. Data was fitted to a four parameter logistic model and IC50 values were calculated using the GraphPad Prism 4 or XLfit 4 programs.
SSAO activity was assayed using 14C-labeled benzylamine and analysed by measuring radioactive benzaldehyde. In a white 96-well optiplate (Packard), 20 μL of diluted test compound was pre-incubated at r.t. with 20 μL SSAO enzyme for approximately 15 minutes with continuous agitation. All dilutions were made with PBS. The reaction was initiated by adding 20 μL of the benzylamine substrate solution containing [7-14C] Benzylamine hydrochloride (CFA589, GE Healthcare). The plate was incubated for 1 hour as above after which the reaction was stopped by acidification (10 μL 1 M HCl). Then 90 μL Micro Scint-E solution (Perkin-Elmer) was added to each well and the plate was continuously mixed for 15 minutes. Phase separation occurred instantly and activity was read in a Topcount scintillation counter (Perkin-Elmer). In the final reaction well, human recombinant SSAO concentration was 10 μg/ml. In order to optimize sensitivity, the substrate concentration was decreased as compared to the HRP coupled assay in order to get a higher fraction of radioactive product. In the human SSAO assay, benzylamine concentration was 40 μM (0.2 μCi/mL). Data was analysed as above.

| pIC50 | Structure (SMILES) |
| --- | --- |
| 5.60 to 6.30 | Clc1ccc(-c2cn(C3CCNCC3)c3ccncc23)cc1Cl [Compound 6, 4-[3-(3,4-Dichlorophenyl)-1H-pyrrolo[3,2-c]pyridin-1-yl]piperidine hydrochloride] |
| 6.30 to 7.00 | Cc1ccc(-n2nc(C3CCOCC3)c3ccncc32)c(F)c1 [Compound 43, 1-(2-Fluoro-4-methylphenyl)-3-(oxan-4-yl)-1H-pyrazolo[3,4-c]pyridine] |
| 5.60 to 6.30 | CC(C)(C)OC(=O)N1CCC(n2cc(-c3ccc(Cl)cc3)c3cnccc32)CC1 [Compound 2, tert-Butyl 4-[3-(4-chlorophenyl)-1H-pyrrolo[3,2-c]pyridin-1-yl]piperidine-1-carboxylate] |
| 6.30 to 7.00 | Clc1ccc(-c2cn(C3CCOC3)c3ccncc23)cc1 (centres unmarked) [Compound 3, 3-(4-Chlorophenyl)-1-(oxolan-3-yl)-1H-pyrrolo[3,2-c]pyridine] |
| 6.30 to 7.00 | Cc1ccc(-n2nc(C3CCOCC3)c3ccncc32)cc1 [Compound 82, 1-(4-Methylphenyl)-3-(oxan-4-yl)-1H-pyrazolo[3,4-c]pyridine] |
| > 7.00 | Clc1ccc(-n2cc(C3CCOCC3)c3ccncc32)cc1 [Compound 101, 1-(4-Chlorophenyl)-3-(oxan-4-yl)-1H-pyrrolo[2,3-c]pyridine] |
| 6.30 to 7.00 | Cc1ccc(-n2nc(C3CCC(=O)NC3)c3ccncc32)cc1 (centres unmarked) [Compound 87, 5-[1-(4-Methylphenyl)-1H-pyrazolo[3,4-c]pyridin-3-yl]piperidin-2-one] |
| 6.30 to 7.00 | FC(F)c1ccc(-n2nc(C3CCOCC3)c3ccncc32)cc1 [Compound 42, 1-[4-(Difluoromethyl)phenyl]-3-(oxan-4-yl)-1H-pyrazolo[3,4-c]pyridine] |
| 5.60 to 6.30 | COc1cncc2c1c(C1CCOCC1)nn2-c1ccc(Cl)cc1 [Compound 94, 1-(4-Chlorophenyl)-4-methoxy-3-(oxan-4-yl)-1H-pyrazolo[3,4-c]pyridine] |
| 5.60 to 6.30 | Cc1ccc(-n2nc(C3CCOCC3)c3ccncc32)cn1 [Compound 47, 2-Methyl-5-[3-(oxan-4-yl)-1H-pyrazolo[3,4-c]pyridin-1-yl]pyridine] |
| 6.30 to 7.00 | C[C@@H]1CN(c2nn(-c3ccc(Cl)cc3)c3cnccc23)C[C@H](C)O1 [Compound 62, (2S,6R)-4-[1-(4-Chlorophenyl)-1H-pyrazolo[3,4-c]pyridin-3-yl]-2,6-dimethylmorpholine] |
| 5.60 to 6.30 | COc1cc2c(C3CCOCC3)nn(-c3ccc(Cl)cc3)c2cn1 [Compound 96, 1-(4-Chlorophenyl)-5-methoxy-3-(oxan-4-yl)-H-pyrazolo[3,4-c]pyridine] |
| 6.30 to 7.00 | Oc1cc2c(C3CCOCC3)nn(-c3ccc(Cl)cc3)c2cn1 [Compound 97, 1-(4-Chlorophenyl)-3-(oxan-4-yl)-1H,5H,6H-pyrazolo[3,4-c]pyridin-5-one] |
| 5.60 to 6.30 | Fc1cncc2c1c(C1CCOCC1)nn2-c1ccc(Cl)cc1 [Compound 88, 1-(4-Chlorophenyl)-4-fluoro-3-(oxan-4-yl)-1H-pyrazolo[3,4-c]pyridine] |
| > 7.00 | CC1CN(c2nn(-c3ccc(Cl)cc3)c3cnccc23)CCO1 (centres unmarked) [Compound 59, 4-[1-(4-Chlorophenyl)-1H-pyrazolo[3,4-c]pyridin-3-yl]-2-methylmorpholine] |
| 5.60 to 6.30 | Clc1ccc(-n2cc(CN3CCOCC3)c3ccncc32)cc1 [Compound 29, 4-{[1-(4-Chlorophenyl)-1H-pyrrolo[2,3-c]pyridin-3-yl]methyl}morpholine] |

| pIC50 | Structure (SMILES) |
| --- | --- |
| > 7.00 | Fc1cc(Cl)ccc1-n1nc(C2CCOCC2)c2ccncc21 [Compound 44, 1-(4-Chloro-2-fluorophenyl)-3-(oxan-4-yl)-1H-pyrazolo[3,4-c]pyridine] |
| > 7.00 | OC1CCN(c2nn(-c3ccc(Cl)cc3)c3cnccc23)CC1 [Compound 53, 1-[1-(4-Chlorophenyl)-1H-pyrazolo[3,4-c]pyridin-3-yl]piperidin-4-ol] |
| > 7.00 | NCCOC(=O)N1CCC(c2cn(-c3ccc(Cl)cc3)c3cnccc23)CC1 [Compound 106, 2-Aminoethyl 4-[1-(4-chlorophenyl)-1H-pyrrolo[2,3-c]pyridin-3-yl]piperidine-1-carboxylate] |
| 6.30 to 7.00 | Clc1ccc(-c2cn(C3CCNCC3)c3ccncc23)cc1 [Compound 5, Bis(2,2,2-trifluoroacetic acid); 4-[3-(4-chlorophenyl)-1H-pyrrolo[3,2-c]pyridin-1-yl]piperidine] |
| 6.30 to 7.00 | OC1CCN(Cc2cn(-c3ccc(Cl)cc3)c3cnccc23)CC1 [Compound 30, 1-{[1-(4-Chlorophenyl)-1H-pyrrolo[2,3-c]pyridin-3-yl]methyl}piperidin-4-ol] |
| 5.60 to 6.30 | CN1CCN(Cc2cn(-c3ccc(Cl)cc3)c3cnccc23)CC1 [Compound 24, 1-{[1-(4-Chlorophenyl)-1H-pyrrolo[2,3-c]pyridin-3-yl]methyl}-4-methylpiperazine] |
| > 7.00 | Clc1ccc(-n2nc(N3CCOCC3)c3ccncc32)cc1 [Compound 56, 4-[1-(4-Chlorophenyl)-1H-pyrazolo[3,4-c]pyridin-3-yl]morpholine] |
| 5.60 to 6.30 | Clc1ccc(-n2nc(N3CCCCC3)c3ccncc32)cc1 [Compound 51, 1-[1-(4-Chlorophenyl)-1H-pyrazolo[3,4-c]pyridin-3-yl]piperidine] |
| 5.60 to 6.30 | Clc1ccc(-n2nc(C3CCOCC3)c3ncncc32)cc1 [Compound 99, 1-(4-Chlorophenyl)-3-(oxan-4-yl)-1H-pyrazolo[4,3-d]pyrimidine] |
| 5.60 to 6.30 | N#Cc1ccc(-n2nc(C3CCOCC3)c3ccncc32)cc1 [Compound 41, 4-[3-(Oxan-4-yl)-1H-pyrazolo[3,4-c]pyridin-1-yl]benzonitrile] |
| 5.60 to 6.30 | CC(C)(C)OC(=O)N1CCN(Cc2cn(-c3ccc(Cl)cc3)c3cnccc23)CC1 [Compound 25] |
| > 7.00 | CC1COCCN1c1nn(-c2ccc(Cl)cc2)c2cnccc12 (centres unmarked) [Compound 60, 4-[1-(4-Chlorophenyl)-1H-pyrazolo[3,4-c]pyridin-3-yl]-3-methylmorpholine] |
| 5.60 to 6.30 | Clc1ccc(-c2cn(CC3CCOC3)c3ccncc23)cc1 (centres unmarked) [Compound 1, 3-(4-Chlorophenyl)-1-(oxolan-3-ylmethyl)-1H-pyrrolo[3,2-c]pyridine] |
| 5.60 to 6.30 | Cc1ccc(-n2nc(C3CNCCO3)c3ccncc32)cc1 (centres unmarked) [Compound 86, 2-[1-(4-Methylphenyl)-1H-pyrazolo[3,4-c]pyridin-3-yl]morpholine] |
| 5.60 to 6.30 | CC(C)(C)OC(=O)N1CCC(c2cn(-c3ccc(Cl)cc3)c3cnccc23)CC1 [Compound 9, tert-Butyl 4-[1-(4-chlorophenyl)-1H-pyrrolo[2,3-c]pyridin-3-yl]piperidine-1-carboxylate] |
| 5.60 to 6.30 | O=C(CO)N1CCC(n2cc(-c3ccc(Cl)c(Cl)c3)c3cnccc32)CC1 [Compound 7, 1-{4-[3-(3,4-Dichlorophenyl)-1H-pyrrolo[3,2-c]pyridin-1-yl]piperidin-1-yl}-2-hydroxyethan-1-one] |

— patent publication US9227967B2, “Inhibitor compounds of semicarbazide-sensitive amine oxidases” (Proximagen Limited, priority 2010, dated 2016)
